Measured values from publication PMC11240139, “Exploring the antitumor potential of novel quinoline derivatives via tubulin polymerization inhibition in breast cancer; design, synthesis and molecular docking” (RSC Advances, 2024).

Key:
HL-60(TB) (leukemia) = experiment: NCI-60 SRB cytotoxicity screen; format: cell-based; details: Homo sapiens, single dose 10 μM, read-out: growth inhibition (GI%)
SR (leukemia) = experiment: NCI-60 SRB cytotoxicity screen; format: cell-based; details: single dose 10 μM, read-out: growth inhibition (GI%)
[1] = system: EKVX (non-small cell lung cancer); experiment: NCI-60 SRB cytotoxicity screen; format: cell-based; details: Homo sapiens, single dose 10 μM, read-out: growth inhibition (GI%)
[2] = system: NCI-H23 (non-small cell lung cancer); experiment: NCI-60 SRB cytotoxicity screen; format: cell-based; details: Homo sapiens; NCI-H23, single dose 10 μM; read-out: growth inhibition (GI%)
[3] = system: NCI-H322M (non-small cell lung cancer); experiment: NCI-60 SRB cytotoxicity screen; format: cell-based; details: Homo sapiens, single dose 10 μM, read-out: growth inhibition (GI%)
[4] = system: NCI-H460 (non-small cell lung cancer); experiment: NCI-60 SRB cytotoxicity screen; format: cell-based; details: Homo sapiens; NCI-H460, single dose 10 μM; read-out: growth inhibition (GI%)
HCT-116 (colon cancer) = experiment: NCI-60 SRB cytotoxicity screen; format: cell-based; details: Homo sapiens; HCT-116, single dose 10 μM; read-out: growth inhibition (GI%)
HCT-15 (colon cancer) = experiment: NCI-60 SRB cytotoxicity screen; format: cell-based; details: Homo sapiens; HCT-15, single dose 10 μM; read-out: growth inhibition (GI%)
HT29 (colon cancer) = experiment: NCI-60 SRB cytotoxicity screen; format: cell-based; details: Homo sapiens, HT-29; HT29, single dose 10 μM; read-out: growth inhibition (GI%)
KM12 (colon cancer) = experiment: NCI-60 SRB cytotoxicity screen; format: cell-based; details: Homo sapiens; KM12, single dose 10 μM; read-out: growth inhibition (GI%)
SF-539 (CNS cancer) = experiment: NCI-60 SRB cytotoxicity screen; format: cell-based; details: Homo sapiens; SF-539, single dose 10 μM; read-out: growth inhibition (GI%)
SK-MEL-28 (melanoma) = experiment: NCI-60 SRB cytotoxicity screen; format: cell-based; details: Homo sapiens; SK-MEL-28, single dose 10 μM; read-out: growth inhibition (GI%)
UACC-257 (melanoma) = experiment: NCI-60 SRB cytotoxicity screen; format: cell-based; details: Homo sapiens; UACC-257, single dose 10 μM; read-out: growth inhibition (GI%)
UACC-62 (melanoma) = experiment: NCI-60 SRB cytotoxicity screen; format: cell-based; details: Homo sapiens; UACC-62, single dose 10 μM; read-out: growth inhibition (GI%)
IGROV1 (ovarian cancer) = experiment: NCI-60 SRB cytotoxicity screen; format: cell-based; details: Homo sapiens, IGROV-1; IGROV1, single dose 10 μM; read-out: growth inhibition (GI%)
OVCAR-4 (ovarian cancer) = experiment: NCI-60 SRB cytotoxicity screen; format: cell-based; details: Homo sapiens; OVCAR-4, single dose 10 μM; read-out: growth inhibition (GI%)
SK-OV-3 (ovarian cancer) = experiment: NCI-60 SRB cytotoxicity screen; format: cell-based; details: Homo sapiens; SK-OV-3, single dose 10 μM; read-out: growth inhibition (GI%)
A498 (renal cancer) = experiment: NCI-60 SRB cytotoxicity screen; format: cell-based; details: Homo sapiens; A498, single dose 10 μM; read-out: growth inhibition (GI%)
CAKI-1 (renal cancer) = experiment: NCI-60 SRB cytotoxicity screen; format: cell-based; details: Homo sapiens; CAKI-1, single dose 10 μM; read-out: growth inhibition (GI%)
TK-10 (renal cancer) = experiment: NCI-60 SRB cytotoxicity screen; format: cell-based; details: Homo sapiens; TK-10, single dose 10 μM; read-out: growth inhibition (GI%)
UO-31 (renal cancer) = experiment: NCI-60 SRB cytotoxicity screen; format: cell-based; details: Homo sapiens; UO-31, single dose 10 μM; read-out: growth inhibition (GI%)
PC-3 (prostate cancer) = experiment: NCI-60 SRB cytotoxicity screen; format: cell-based; details: PC-3, single dose 10 μM; read-out: growth inhibition (GI%)
DU-145 (prostate cancer) = experiment: NCI-60 SRB cytotoxicity screen; format: cell-based; details: Homo sapiens; DU-145, single dose 10 μM; read-out: growth inhibition (GI%)
MCF7 (breast cancer) = experiment: NCI-60 SRB cytotoxicity screen; format: cell-based; details: Homo sapiens; MCF7, single dose 10 μM; read-out: growth inhibition (GI%)
T-47D (breast cancer) = experiment: NCI-60 SRB cytotoxicity screen; format: cell-based; details: Homo sapiens, T47D, single dose 10 μM, read-out: growth inhibition (GI%)
[5] = system: MDA-MB-468 (breast cancer); experiment: NCI-60 SRB cytotoxicity screen; format: cell-based; details: Homo sapiens; MDA-MB-468, single dose 10 μM; read-out: growth inhibition (GI%)
Summary of the method: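 NCI-60 single-dose (10^−5 M) screen in MDA-MB-468 with SRB protein-stain read-out after 48 h exposure; cells TCA-fixed and absorbance read at 540 nm. Reported as GI%, with compounds meeting NCI activity criteria then run at five doses (0.01–100 μM).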

SMILES | inhibition at 10 µM (HL-60(TB) (leukemia)) [%] | inhibition at 10 µM (SR (leukemia)) [%] | inhibition at 10 µM [1] [%] | inhibition at 10 µM [2] [%] | inhibition at 10 µM [3] [%] | inhibition at 10 µM [4] [%] | inhibition at 10 µM (HCT-116 (colon cancer)) [%] | inhibition at 10 µM (HCT-15 (colon cancer)) [%] | inhibition at 10 µM (HT29 (colon cancer)) [%] | inhibition at 10 µM (KM12 (colon cancer)) [%] | inhibition at 10 µM (SF-539 (CNS cancer)) [%] | inhibition at 10 µM (SK-MEL-28 (melanoma)) [%] | inhibition at 10 µM (UACC-257 (melanoma)) [%] | inhibition at 10 µM (UACC-62 (melanoma)) [%] | inhibition at 10 µM (IGROV1 (ovarian cancer)) [%] | inhibition at 10 µM (OVCAR-4 (ovarian cancer)) [%] | inhibition at 10 µM (SK-OV-3 (ovarian cancer)) [%] | inhibition at 10 µM (A498 (renal cancer)) [%] | inhibition at 10 µM (CAKI-1 (renal cancer)) [%] | inhibition at 10 µM (TK-10 (renal cancer)) [%] | other results
CCc1cccc2cc(-c3cc(-c4ccc(OC)c(OC)c4)[nH]c(=O)c3C#N)c(Cl)nc12 [Compound 4b, 4-(2-Chloro-8-ethylquinolin-3-yl)-6-(3,4-dimethoxyphenyl)-2-oxo-1,2-dihydropyridine-3-carbonitrile] | < 10 | < 10 | 14.2 | < 10 | < 10 | < 10 | < 10 | < 10 | < 10 | < 10 | < 10 | < 10 | < 10 | < 10 | < 10 | 14 | < 10 | < 10 | 39.2 | < 10 | inhibition at 10 µM (UO-31 (renal cancer)): < 10%; inhibition at 10 µM (PC-3 (prostate cancer)): < 10%; inhibition at 10 µM (DU-145 (prostate cancer)): < 10%; inhibition at 10 µM (MCF7 (breast cancer)): 11.3%; inhibition at 10 µM (T-47D (breast cancer)): 16.6%; inhibition at 10 µM [5]: < 10%; melting point: 280 to 282 °C
CCc1cccc2cc(-c3cc(-c4ccc(OC)cc4)[nH]c(=S)c3C#N)c(Cl)nc12 [Compound 5a, 4-(2-Chloro-8-ethylquinolin-3-yl)-6-(4-methoxyphenyl)-2-thioxo-1,2-dihydropyridine-3-carbonitrile] | 14.9 | 11.6 | 10.3 | 11.8 | 17.6 | < 10 | 14.8 | < 10 | < 10 | < 10 | < 10 | < 10 | < 10 | 20.5 | 12.9 | 24.5 | < 10 | < 10 | 44.7 | < 10 | inhibition at 10 µM (UO-31 (renal cancer)): 19.7%; inhibition at 10 µM (PC-3 (prostate cancer)): < 10%; inhibition at 10 µM (DU-145 (prostate cancer)): < 10%; inhibition at 10 µM (MCF7 (breast cancer)): 20.8%; inhibition at 10 µM (T-47D (breast cancer)): 12.7%; inhibition at 10 µM [5]: 18.7%; melting point: 290 to 292 °C
CCc1cccc2cc(-c3cc(-c4cc(OC)c(OC)c(OC)c4)[nH]c(=S)c3C#N)c(Cl)nc12 [Compound 5c, 4-(2-Chloro-8-ethylquinolin-3-yl)-2-thioxo-6-(3,4,5-trimethoxyphenyl)-1,2-dihydropyridine-3-carbonitrile] | 51.8 | 49 | 34.9 | 33.7 | 34 | 21.8 | 27.1 | 29 | 20.4 | 37.2 | 29.7 | < 10 | 20.1 | 33.5 | 33.4 | 41.6 | < 10 | 18.8 | 69.8 | < 10 | inhibition at 10 µM (UO-31 (renal cancer)): 45.2%; inhibition at 10 µM (PC-3 (prostate cancer)): 48.9%; inhibition at 10 µM (DU-145 (prostate cancer)): 32.3%; inhibition at 10 µM (MCF7 (breast cancer)): 46.5%; inhibition at 10 µM (T-47D (breast cancer)): 60.6%; inhibition at 10 µM [5]: 50.5%; melting point: 279 to 281 °C
